From article PMC8449414, “Rational design of ASCT2 inhibitors using an integrated experimental-computational approach” (Proceedings of the National Academy of Sciences of the …, 2021)

Biological target: T1, hASCT2 (Homo sapiens, UniProt Q15758)
T1 construct: expressed in transfected cells; host or cells: HEK293 (ATCC CRL-11268), transient transfection
T1 sequence (Q15758 1-541): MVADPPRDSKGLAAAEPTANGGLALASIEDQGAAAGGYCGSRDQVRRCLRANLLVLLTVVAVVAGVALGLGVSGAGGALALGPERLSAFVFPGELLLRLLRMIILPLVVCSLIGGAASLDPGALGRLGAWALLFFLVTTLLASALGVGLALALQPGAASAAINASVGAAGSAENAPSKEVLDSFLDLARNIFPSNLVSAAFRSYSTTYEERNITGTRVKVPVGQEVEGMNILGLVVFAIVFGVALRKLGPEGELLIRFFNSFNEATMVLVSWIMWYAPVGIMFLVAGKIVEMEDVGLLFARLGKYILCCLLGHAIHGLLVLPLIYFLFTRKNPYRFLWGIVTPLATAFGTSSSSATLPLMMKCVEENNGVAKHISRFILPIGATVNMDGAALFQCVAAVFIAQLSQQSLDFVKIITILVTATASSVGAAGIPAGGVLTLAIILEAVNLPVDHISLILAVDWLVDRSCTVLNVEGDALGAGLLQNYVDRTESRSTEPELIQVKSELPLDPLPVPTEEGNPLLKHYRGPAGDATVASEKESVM
Experiment: Glutamine transport assay in proteoliposomes reconstituted with purified hASCT2
Assay type: biochemical
Settings: in the presence of 5 µM glutamine; read-out: IC50, inhibition of glutamine uptake in proteoliposomes
Source text: Our computational models predicted Lc-BPE as a competitive inhibitor targeting the substrate binding site. To test this prediction, we performed electrophysiological competition experiments in the presence of varying concentrations of the substrate, L-alanine. The results were consistent with a competitive inhibition mechanism (SI Appendix, Fig. S4). At low inhibitor concentrations, the alanine-induced currents were inward, as expected from transported substrates, indicative of the inability of Lc-BPE to displace alanine from the binding site. However, as inhibitor concentration increased, the currents became outwardly directed in a dose-dependent manner, which marked the displacement of alanine by the inhibitor (SI Appendix, Fig. S5). The apparent Ki increased as a function of the alanine concentration, as anticipated for a competitive mechanism (SI Appendix, Figs. S5 and S6). […] We further tested the inhibitory activity of Lc-BPE in a cell-free transport assay in proteoliposomes, where purified and reconstituted hASCT2 catalyzes the exchange of intracellular nonlabeled L-glutamine with extracellular radioactive-labeled L-glutamine. We observed a dose-dependent inhibition of glutamine transport when Lc-BPE was added externally, which confirms that this compound is an hASCT2 inhibitor with a half-maximum inhibitory concentration (IC50) value of 20 µM in the presence of 5 µM glutamine (Fig. 2D).
Dilutions to working concentrations were made using external buffer. The highest […]
cells. For rASCT2, hASCT2 and hASCT1, external buffer contained 140 mM NaCl, 2 mM MgCl2, 2 mM CaCl2, and 10 mM HEPES, pH 7.40 while internal pipette solution comprised of 130 mM NaSCN, 2 mM MgCl2, 10 mM EGTA, 10 mM HEPES and 10mM alanine, pH 7.40. […] Current s traces were recorded using an Adams and List EPC7 amplifier and digitized using a Molecular Devices Digidata A/D converter.
Data analysis was performed as described previously 46. Linear and nonlinear curve fitting of the experimental data were analyzed using MicroCal Origin software. […]

| SMILES | IC50 [µM] |
| --- | --- |
| N[C@@H](COC(=O)c1ccc(NC(=O)c2ccccc2)cc1)C(=O)O [ERA-21] | 56 |
| O=C(O[C@H]1CN[C@H](C(=O)O)C1)c1ccc(C(=O)c2ccccc2)cc1 [ERA-35] | 411 |
| O=C(O[C@@H]1CN[C@H](C(=O)O)C1)c1ccc(-c2ccccc2)cc1 [Lc-BPE, L-cis hydroxyproline biphenyl ester] | 20 |
